Molecules are shown by their SMILES. Converted amounts (≈) assume the structure as drawn. “And” between values parts separate entries of the source, which are not always exact repeats. Equal entries are not always repeated.

Test [1] has as its system Candida albicans ATCC 10231. The test can be described thus: MIC, broth microdilution. The following applies: ATCC10231, C. albicans ATCC 10231. In kind it is cell-based. On the procedure:
(§1) The Minimum Inhibitory Concentrations (MIC) of the extracts were determined using the broth microdilution method in accordance with the guidelines of the Clinical and Laboratory Standards Institute (CLSI) ([Clinical and Laboratory Standards Institute, 2020]). The procedure was originally based on the CLSI M27-A2 standard (1997) ([[…]]) for antifungal susceptibility testing, while the updated fourth edition (2017) was referenced to reflect current methodological standards ([[…]]).
(§2) The inocula of the tested bacterial and yeast strains were prepared following CLSI protocols, and the extracts were dissolved in DMSO to prepare stock solutions. Serial dilutions ranging from 1,250 to 0.06 μ g/mL were performed in Mueller-Hinton Broth (for bacterial strains) and RPMI-1640 medium (for yeast strains). MIC values of the extracts were determined against four g (−) bacterial strains (P. aeruginosa ATCC 27853, Escherichia coli ATCC 25922, Klebsiella pneumoniae ATCC 4352, Proteus mirabilis ATCC 14153), three g (+) bacterial strains (Staphylococcus aureus ATCC 29213, Staphylococcus epidermidis ATCC 12228, Enterococcus faecalis ATCC 29212), and three yeast strains (Candida albicans ATCC 10231, Candida parapsilosis ATCC 22019, Candida tropicalis ATCC 750).
For orientation: Dilution methods test growth across graded concentrations, often in twofold steps.

The target in test [2] is T1, Porcine pancreatic elastase (Sus scrofa, UniProt P00772).
T1 construct: Porcine pancreatic elastase (E.C. 3.4.21.36); from tissue; host or cells: porcine pancreas
The test is described as follows: Anti-elastase assay. In kind it is biochemical. On the procedure:
The elastase inhibition assay was conducted using a spectrophotometric method developed by [Lee et al. (1999)]. Porcine pancreatic elastase (E.C. 3.4.21.36) at a concentration of 3.33 mg/mL was used as the enzyme and dissolved in 0.2 mM Tris-HCl buffer (pH 8.0). The substrate, N-Succinyl-Ala-Ala-Ala-p-nitroanilide (SANA), was prepared in the same buffer at a concentration of 1.6 mM. For each reaction, 50 μ L of buffer, 25 μ L of enzyme solution, and 50 μ L of the test extract were pre-incubated at room temperature for 15 min before the addition of SANA. Epigallocatechin gallate (EGCG) was used as the positive control, while ethanol served as the negative control. The reaction was initiated by adding 125 μ L of the substrate solution to the mixture, followed by incubation at room temperature for 20 min. The absorbance change was then measured at 410 nm.

The nature of test [3]: ABTS cation radical scavenging assay. The method, then: The ABTS cation radical scavenging assay was evaluated using 2,2′-azino-bis(3-ethylbenzothiazoline-6-sulfonic acid) according to the method developed by [Re et al. (1999)]. Extracts were dissolved in methanol at a concentration of 1 mg/mL to prepare the primary stock solutions. Aliquots of these solutions, in volumes of 2, 5, 10, and 20 μ L, were each diluted to a final volume of 40 μ L with methanol. Subsequently, 160 μ L of ABTS cation radical solution at a 7 mM concentration was introduced to each mixture. The reactions were allowed to proceed in darkness for 6 min, subsequent to which the absorbance was recorded at a wavelength of 734 nm. BHA, BHT, and α -TOC were used as positive control.

Test [4] can be described thus: Cupric reducing antioxidant capacity (CUPRAC). Conditions: 450 nm. On the procedure:
The absorbance of this chelate formation is then quantified at a wavelength of 450 nm. In the CUPRAC method, according to the procedure developed by Apak et al.; Cu (II), neocuproine (2,9-dimethyl-1,10-phenanthroline), and NH4OAc buffer were added to the sample and standard solutions to achieve final concentrations of 10, 25, 50, and 100 μ g/mL. After an incubation period of 1 h, the absorbance was measured at 450 nm. BHA, BHT, and α -TOC were used as positive control ([Apak et al., 2004]).

A short description of test [5]: DPPH free radical scavenging assay. On the procedure:
The DPPH radical scavenging assay was evaluated using 1,1-diphenyl-2-picrylhydrazyl (DPPH) free radical according to the method developed by [Blois (1958)]. Extracts were dissolved in methanol at a concentration of 1 mg/mL to prepare the primary stock solutions. Aliquots of these solutions, in volumes of 2, 5, 10, and 20 μ L, were each diluted to a final volume of 40 μ L with methanol. Subsequently, 160 μ L of DPPH solution at a 0.1 mM concentration was introduced to each mixture. After the solutions were incubated at room temperature in the dark for 30 min, their absorbance was measured at a wavelength of 517 nm. BHA, BHT, and α -TOC were used as positive control.
In general terms: The DPPH test is a chemical assay of radical scavenging.

For test [6], the target named is α-Glucosidase. Conditions: flavonoids isolated from H. attenuatum; ref Jin et al., 2021; cited from earlier work.
The subject of test [7] is Staphylococcus aureus ATCC 29213. The test can be described thus: MIC, broth microdilution. The following applies: S. aureus ATCC 29213. In kind it is cell-based. On the procedure:
as §1, §2

Test [8] deals with Escherichia coli ATCC 25922. The test is described as follows: MIC, broth microdilution. It is filed as cell-based. The following applies: E. coli ATCC 25922. The method, then:
as §1, §2

Test [9] has as its system Klebsiella pneumoniae ATCC 4352. The test can be described thus: MIC, broth microdilution. Conditions: K. pneumoniae ATCC 4352. In kind it is cell-based. On the procedure: as §1, §2
The test system of test [10] is Staphylococcus epidermidis ATCC 12228. The test is described as follows: MIC, broth microdilution. Conditions: S. epidermidis ATCC 12228. In kind it is cell-based. The method, then:
as §1, §2

Test [11] has as its system Proteus mirabilis ATCC 14153. The test is described as follows: MIC, broth microdilution. The following applies: P. mirabilis ATCC 14153. It is filed as cell-based. The method, then:
as §1, §2

The subject of test [12] is Candida parapsilosis ATCC 22019. The test is described as follows: MIC, broth microdilution. Conditions: Lodderomyces parapsilosis, ATCC22019; C. parapsilosis ATCC 22019. It is filed as cell-based. The method, then:
as §1, §2

Test [13] deals with Candida tropicalis ATCC 750. The test can be described thus: MIC, broth microdilution. It is filed as cell-based. The following applies: ATCC750, C. tropicalis ATCC 750. The method, then: as §1, §2
In test [14] the test system is P. aeruginosa ATCC 27853. The test can be described thus: MIC, broth microdilution. Conditions: Pseudomonas aeruginosa, ATCC27853. In kind it is cell-based. The method, then:
as §1, §2

The test system of test [15] is Enterococcus faecalis ATCC 29212. The test is described as follows: MIC, broth microdilution. It is filed as cell-based. The following applies: ATCC29212. The method, then: as §1, §2

T1 sequence (P00772 27-266): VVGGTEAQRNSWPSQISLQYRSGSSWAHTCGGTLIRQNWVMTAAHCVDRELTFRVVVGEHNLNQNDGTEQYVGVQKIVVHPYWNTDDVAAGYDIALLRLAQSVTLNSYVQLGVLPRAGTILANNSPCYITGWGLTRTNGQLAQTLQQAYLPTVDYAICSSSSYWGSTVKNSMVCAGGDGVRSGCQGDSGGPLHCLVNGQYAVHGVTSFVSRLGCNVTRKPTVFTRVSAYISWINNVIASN

The molecule `Clc1ccccc1C(c1ccccc1)(c1ccccc1)n1ccnc1` [Clotrimazole] returned a minimum inhibitory concentration (MIC) in [1] of 4.9 µg/mL (≈ 14.2 µM).
Consider `C[C@H]1[C@H](C)CC[C@]2(C(=O)O)CC[C@]3(C)C(=CC[C@@H]4[C@@]5(C)CC[C@H](O)C(C)(C)[C@@H]5CC[C@]43C)[C@H]12` [Ursolic acid], for which the IC50 in test [2] is 30.2 µM.
Regarding `Cc1cc(C(C)(C)C)c(O)c(C(C)(C)C)c1` [BHT], the “ABTS (% Inhibition)” value in test [3] (10 µg/mL) is on record as 76.35 ± 0.78%; in test [3] (25 µg/mL), 88.00 ± 2.49%; in test [3] (50 µg/mL) it was 88.96 ± 0.13%; in [3] (100 µg/mL) it was 89.13%. Moreover, the “CUPRAC (Absorbance)” value is 0.652 ± 0.01 in [4] (10 µg/mL); 1.211 ± 0.18 in test [4] (25 µg/mL); 2.040 ± 0.31 in test [4] (50 µg/mL); 3.559 ± 0.27 and 3.559 in [4] (100 µg/mL). Further, the “DPPH (% Inhibition)” value in test [5] (10 µg/mL) stood at 39.28 ± 1.03%; in test [5] (25 µg/mL), 60.68 ± 4.18%; in test [5] (50 µg/mL) it was 69.14 ± 1.84%; in test [5] (100 µg/mL), 76.17%.
Consider `COc1ccc(O)c(C(C)(C)C)c1` [BHA], for which the “ABTS (% Inhibition)” value is on record as 63.94 ± 0.18% in test [3] (10 µg/mL), 78.23 ± 1.08% in test [3] (25 µg/mL), 87.41 ± 0.16% in [3] (50 µg/mL) and 87.62% in [3] (100 µg/mL). Moreover, the “CUPRAC (Absorbance)” value in [4] (10 µg/mL) was 0.838 ± 0.03; in test [4] (25 µg/mL), 1.647 ± 0.18; in test [4] (50 µg/mL), 2.753 ± 0.09; in test [4] (100 µg/mL), 3.769 ± 0.05 and 3.769. The “DPPH (% Inhibition)” value in test [5] (10 µg/mL) stood at 62.00 ± 0.90%; in test [5] (25 µg/mL), 71.86 ± 0.76%; in [5] (50 µg/mL), 74.48 ± 0.35%; in [5] (100 µg/mL) it was 75.23%.
In the case of `O=c1c(O[C@@H]2OC[C@H](O)[C@H](O)[C@H]2O)c(-c2ccc(O)c(O)c2)oc2cc(O)cc(O)c12` [guaijaverin], the IC50 in test [6] was 17.2 ± 0.75 µM.
Take `CO/N=C(\C(=O)N[C@@H]1C(=O)N2C(C(=O)[O-])=C(COC(N)=O)CS[C@H]12)c1ccco1.[Na+]` [Cefuroxime-Na]: the minimum inhibitory concentration (MIC) in test [7] came out at 1.2 µg/mL; in [8] it was 4.9 µg/mL; in test [9], 4.9 µg/mL; in [10], 9.8 µg/mL; in test [11] it was 2.4 µg/mL.
As for `C[C@@H]1[C@H](O)[C@@H](C)/C=C/C=C/C=C/C=C/C=C/C=C/C=C/[C@H](O[C@@H]2O[C@H](C)[C@@H](O)[C@H](N)[C@@H]2O)C[C@@H]2O[C@](O)(C[C@@H](O)C[C@@H](O)[C@H](O)CC[C@@H](O)C[C@@H](O)CC(=O)O[C@H]1C)C[C@H](O)[C@H]2C(=O)O` [Amphotericin B], the MIC was found to be 1 µg/mL (≈ 1.08 µM) in test [12] and 0.5 µg/mL (≈ 0.541 µM) in test [13].
In the case of `CC(C)(O/N=C(\C(=O)N[C@@H]1C(=O)N2C(C(=O)[O-])=C(C[n+]3ccccc3)CS[C@H]12)c1csc(N)n1)C(=O)O` [Ceftazidime], the lowest concentration to inhibit growth in test [14] (MIC) was 2.4 µg/mL (≈ 4.39 µM).
Consider `NCC[C@H](O)C(=O)N[C@@H]1C[C@H](N)[C@@H](O[C@H]2O[C@H](CN)[C@@H](O)[C@H](O)[C@H]2O)[C@H](O)[C@H]1O[C@H]1O[C@H](CO)[C@@H](O)[C@H](N)[C@H]1O` [Amikacin], for which the lowest concentration to inhibit growth in [15] (MIC) was 128 µg/mL (≈ 219 µM).
With `Cc1c(C)c2c(c(C)c1O)CC[C@@](C)(CCC[C@H](C)CCC[C@H](C)CCCC(C)C)O2` [α-TOC], the “ABTS (% Inhibition)” value in [3] (10 µg/mL) was determined as 65.39 ± 2.37%; in test [3] (25 µg/mL), 83.47 ± 0.98%; in test [3] (50 µg/mL) it was 85.89 ± 2.62%; in [3] (100 µg/mL) it was 88.89%. In addition, the “CUPRAC (Absorbance)” value in [4] (10 µg/mL) was 0.391 ± 0.01; in test [4] (25 µg/mL), 0.904 ± 0.00; in test [4] (50 µg/mL), 1.563 ± 0.09; in [4] (100 µg/mL), 2.460 ± 0.09 and 2.460. Besides, the “DPPH (% Inhibition)” value in test [5] (10 µg/mL) came out at 63.28 ± 3.28%; in [5] (25 µg/mL), 73.51 ± 4.14%; in [5] (50 µg/mL), 76.94 ± 0.71%; in test [5] (100 µg/mL), 78.07%.

As usually defined, the MIC is the lowest concentration found to suppress growth. Low values mean a more susceptible organism, high ones a less susceptible organism. Broadly, the IC50 is the point on the concentration scale where inhibition reaches its midpoint.

Source of the values: PMC12277336, “Hypericum empetrifolium subsp. empetrifolium: an assessment of its antifungal, antidiabetic, anti-aging, and neuroprotective potential” (Frontiers in Pharmacology, 2025).
